Measurements from patent publication US8691851B2, “Lanthanide metal complexes useful in treating cancer” (National University of Singapore, priority 2009, dated 2014).

What was measured:
Assay type in all cases: cell-based
LC3 II = LC3 II formation by Western blot; details: SHSY5Y cells, 5 or 10 mM 3MA for 2 hours, then 10 uM C19H24N3O5S5Pr for 7 hours
[1] = test system: SHEP-1 and MDA-MB-231 cancer cells; assay: Morphological changes of cancer cells; details: 10 mM 3MA, then 5 μM (SHEP-1) or 10 μM (MDA-MB-231) C19H24N3O5S5Pr
PPARγ = target: T1, PPARγ (Homo sapiens, UniProt P37231); set-up: endogenous in cells; host or cells: SHSY5Y, SHEP1 / SHEP-1 (neuroblastoma); details: SHSY5Y and SHEP1 cells in 10% serum, 0 to 10 μM, 18 hours
T1 sequence (P37231 1-505): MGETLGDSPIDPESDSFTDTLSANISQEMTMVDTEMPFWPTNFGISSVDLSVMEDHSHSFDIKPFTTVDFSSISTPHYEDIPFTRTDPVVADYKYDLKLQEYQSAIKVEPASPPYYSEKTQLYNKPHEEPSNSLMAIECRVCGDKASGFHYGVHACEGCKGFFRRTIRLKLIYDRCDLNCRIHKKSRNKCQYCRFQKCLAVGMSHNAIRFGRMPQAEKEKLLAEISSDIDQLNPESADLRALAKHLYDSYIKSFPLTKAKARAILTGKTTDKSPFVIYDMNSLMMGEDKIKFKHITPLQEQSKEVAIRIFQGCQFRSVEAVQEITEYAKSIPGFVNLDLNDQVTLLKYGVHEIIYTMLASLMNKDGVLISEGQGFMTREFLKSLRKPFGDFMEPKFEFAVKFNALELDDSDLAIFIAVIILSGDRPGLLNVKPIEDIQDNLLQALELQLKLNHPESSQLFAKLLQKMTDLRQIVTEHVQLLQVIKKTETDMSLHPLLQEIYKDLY
Procedure: To determine if C19H24N3O5S5Pr activates PPARγ, SHSY5Y and SHEP1 neuroblastoma cells were transiently co-transfected with a 3×PPRE luciferase plasmid and renilla plasmid for transfection efficiency. Forty eight hours following transfection, the cells were exposed to increased concentrations (0 to 10 μM) of 15d-PGJ2 and C19H24N3O5S5Pr for 18 hours. The fold increase in luciferase activity correlates with the PPARγ activity of the cell. PPARγ activity is determined by calculating the RLU/renilla/μg total protein.
To assess if C19H24N3O5S5Pr activation of PPARγ is dependent on expression of PPARγ neuroblastoma cells, neuroblastoma cells SHEP1 and SHSY5Y were transiently co-transfected with a 3×PPRE luciferase plasmid and renilla plasmid for transfection efficiency. Forty eight hours following transfection, cells were exposed to increased concentrations (0 to 20 μM) of C19H24N3O5S5Pr for 18 hours. PPARγ activity was calculated as luciferase RLU/renilla/μg total protein.

RhoB = RhoB induction after preincubation with PPAR-γ antagonist; details: SHEP-1 cells, 10 uM GW9662 for 2 hours, then 10 uM C19H24N3O5S5Pr for 4 hours
Procedure: SHEP-1 cancer cells were preincubated with 10 uM GW9662, a pharmacological PPAR-γ antagonist that was able to abrogate the induction of RhoB protein by C19H24N3O5S5Pr, or vehicle control for 2 hours before being exposed to 10 uM of C19H24N3O5S5Pr for 4 hours.

Question: `Cn1cnc(N)c2ncnc1-2` [3MA, 3-methyl adenine, reference compound] was tested. Which “LC3 II levels induced by C19H24N3O5S5Pr after 3MA preincubation” value (LC3 II) did it give?
Answer: The value was “LC3 II levels were reduced”.

Question: What about the “cell morphology after 3MA preincubation followed by C19H24N3O5S5Pr” value [1] of the same compound?
Answer: Its value is “did not demonstrate this death-like morphology”.

Question: For `CCCCC/C=C/C=C1/C(=O)C=CC1C/C=C\CCCC(=O)O` (stereo not shown) [15dPGJ2, 15-deoxy-Delta-12,14, prostaglandin, reference compound], which “PPARγ activation (luciferase RLU/renilla/μg total protein)” value (PPARγ) is on record?
Answer: Its value is “did not display any PPARγ activation”.

Question: For `O=C(Nc1ccccc1)c1cc([N+](=O)[O-])ccc1Cl` [GW9662], which “RhoB expression induced by C19H24N3O5S5Pr after antagonist preincubation” value (RhoB) is on record?
Answer: The value was “RhoB was not expressed”.
